{"source": "ChEMBL document CHEMBL3832065", "about": "“DailyMed|setid=d976599a-0ee0-4fa4-afe6-bdfbca570afe | OLANZAPINE - olanzapine tablet, film coated|Rebel Distributors Corp”", "key": {"[1]": {"experiment": "(§1) Evaluation of pharmacokinetic parameters for Olanzapine after single oral dose of Olanzapine tablet.", "format": "ADME, organism-based", "conditions": "human, in vivo, regimen Single dose"}, "Homo sapiens": {"test_system": "Homo sapiens", "experiment": "as §1", "format": "ADME, organism-based", "conditions": "in vivo, po, dosed compound id 18, dosed compound name OLANZAPINE, regimen Single dose, tissue Plasma"}, "[2]": {"conditions": "dosed compound id 18, dosed compound name OLANZAPINE, tissue Plasma"}}}
{"smiles": "Cc1cc2c(s1)Nc1ccccc1N=C2N1CCN(C)CC1", "note": "[OLANZAPINE]", "values": [{"measurement": "Tmax", "setting": "[1]; [2]", "value": 6, "unit": "h"}, {"measurement": "half-life", "setting": "[1]; [2]", "value": 30, "unit": "h"}, {"measurement": "CL/F", "setting": "[1]; dosed compound id 18, dosed compound name OLANZAPINE, tissue Plasma, read-out: CL(app) (converted)", "value": 417, "unit": "mL/min"}, {"measurement": "dose excreted", "setting": "[1]; dosed compound id 180, dosed compound name C-14 OLANZAPINE, tissue Urine, read-out: Excretion", "value": 7, "unit": "%"}, {"measurement": "Vd", "setting": "Homo sapiens", "value": 1000, "unit": "L"}]}
